Measurements published in patent US20240116946A1 (Gilead Sciences, Inc., priority 2022, published 2024).
pEC50, pIC50: −log10 of the molar value. Like-named read-outs stand apart in the source and are kept apart here.

What was measured:
[1] = target: recombinant SARS-CoV-2 Main protease (Mpro) (Severe acute respiratory syndrome coronavirus 2 (2019-nCoV) (SARS-CoV-2), UniProt P0DTD1); assay: Cov Mpro Biochemical IC50 Assay
SARS-CoV-2-NLuc = assay: microbe, parasite or virus in culture; type: cell-based, SARS Coronavirus 2
[2] = recombinant SARS-CoV-2 Mpro 7.5 nM, fluorogenic peptide substrate 40 μM, read-out: MPro IC50
[3] = Severe acute respiratory syndrome coronavirus, 48 h, read-out: MPro EC50
[4] = recombinant SARS-CoV-2 Mpro, fluorogenic peptide substrate, read-out: MPro IC50
[5] = Severe acute respiratory syndrome coronavirus, 48 h; read-out: MPro EC50

Row | SMILES | pIC50 [1, 2] | pEC50 (SARS-CoV-2-NLuc; [3]) | pIC50 [1, 4] | also measured
1 | COc1ccc(C#N)c(-c2cc3[nH]c(=O)n(-c4cncc5ccc(OC)cc45)c(=O)c3cc2F)c1 [Example 429] | 8.55 | 7.95 | – | –
2 | CCc1ccncc1-n1c(=O)[nH]c2cc(-c3ccccc3Cl)ccc2c1=O [Example 124] | – | 5.65 | 6.02 | –
3 | COc1cc(-c2sc3c(=O)n(-c4cncc5ccccc45)c(=O)[nH]c3c2C)c(Cl)cc1F [Example 1016] | 6.45 | – | – | pEC50 (SARS-CoV-2-NLuc; [5]): < 6.00
4 | COc1ccc(C#N)c(-c2cc3[nH]c(=O)n(-c4cncc5ccc(OC)cc45)c(=O)c3s2)c1 [Example 626] | 8.11 | 7.49 | – | –
5 | COc1ccc(Cl)c(-c2cc3[nH]c(=O)n(-c4cncc(CC(=O)N5CCOCC5)c4)c(=O)c3s2)c1 [Example 612] | 7.91 | < 6.00 | – | –
6 | NC(=O)c1ccccc1-c1cnc2c(=O)n(-c3cncc4ccccc34)c(=O)[nH]c2c1 [Example 70] | – | < 4.30 | 5.57 | –
7 | O=c1[nH]c2cc(-c3ccccc3Cl)ccc2c(=O)n1-c1cncc(C2CC2)c1 [Example 127] | – | – | – | pIC50 ([1]; MPro IC50, recombinant SARS-CoV-2 Mpro, fluorogenic peptide substrate): 6.11; pEC50 (SARS-CoV-2-NLuc; [5]): 6.19
8 | COc1ccc(Cl)c(-c2cc3[nH]c(=O)n(-c4cncc5ccc(N6CC7C(C6)C7(F)F)cc45)c(=O)c3s2)c1 (stereo not drawn) [Example 232] | – | 7.46 | 7.75 | –
9 | Cc1nn(C)cc1-c1cccc(Cl)c1-c1ccc2c(=O)n(-c3cncc4ccccc34)c(=O)[nH]c2c1 [Example 148] | – | 7.85 | 7.98 | –
10 | O=c1[nH]c2cc(-c3ccccc3Cl)sc2c(=O)n1-c1cncc2ncccc12 [Example 134] | – | 6.82 | 7.20 | –
11 | COc1cc(-c2cc3c(s2)c(=O)n(-c2cncc(C(F)(F)F)c2)c(=O)n3CCC#N)c(Cl)cc1F [Example 869] | 7.62 | 7.14 | – | –
12 | N#Cc1ccc(-c2ccc3c(=O)n(-c4cncc5ccccc45)c(=O)[nH]c3c2)cc1 [Example 35] | – | < 4.30 | < 4.00 | –
13 | O=c1[nH]c2cc(-c3cccc(Cl)c3)ccc2c(=O)n1-c1cncc2ccccc12 [Example 56] | – | 5.40 | 5.56 | –
14 | COc1cc(-c2cc3[nH]c(=O)n(-c4cncc5cccc(F)c45)c(=O)c3s2)c(Cl)cc1F [Example 444, 6-(2-chloro-4-fluoro-5-methoxyphenyl)-3-(5-fluoroisoquinolin-4-yl)thieno[3,2-d]pyrimidine-2,4(1H,3H)-dione] | 8.26 | 8.05 | – | –
15 | COc1cc(-c2cc3[nH]c(=O)n(-c4cnnc5ccccc45)c(=O)c3s2)c(Cl)cc1F [Example 745] | 7.04 | – | – | pEC50 (SARS-CoV-2-NLuc; [5]): 6.59
16 | O=c1[nH]c2cc(-c3ccccc3C3CC3)sc2c(=O)n1-c1cncc2ccccc12 [Example 16] | – | 6.74 | 6.78 | –
17 | O=c1[nH]c2cc(-c3c(Cl)cccc3-c3cnn4c3CCCC4)ccc2c(=O)n1-c1cncc2ccccc12 [Example 306] | – | 8.28 | 8.09 | –
18 | COc1cc(-c2cc3c(s2)c(=O)n(-c2cncc4nnn(C)c24)c(=O)n3CCC#N)c(Cl)cc1F (single isomer, unassigned) [Example 1059, 3-(6-(2-chloro-4-fluoro-5-methoxyphenyl)-3-(1-methyl-1H-[1,2,3]triazolo[4,5-c]pyridin-7-yl)-2,4-dioxo-3,4-dihydrothieno[3,2-d]pyrimidin-1(2H)-yl)propanenitrile] | 7.35 | – | – | pEC50 (SARS-CoV-2-NLuc; read-out: MPro EC50): 7.00
19 | O=c1[nH]c2cc(-c3c(Cl)cccc3OCc3cscn3)ccc2c(=O)n1-c1cncc2ccccc12 [Example 86, 7-[2-chloro-6-(thiazol-4-ylmethoxy)phenyl]-3-(4-isoquinolyl)-1H-quinazoline-2,4-dione] | – | – | 6.95 | pEC50 (SARS-CoV-2-NLuc; read-out: MPro EC50): 6.84
20 | COc1cc(-c2cc3c(s2)c(=O)n(-c2cncc4nc(C(F)(F)F)n(C)c24)c(=O)n3CCC#N)c(Cl)cc1F (single isomer, unassigned) [Example 974, 3-(6-(2-chloro-4-fluoro-5-methoxyphenyl)-3-(1-methyl-2-(trifluoromethyl)-1H-imidazo[4,5-c]pyridin-7-yl)-2,4-dioxo-3,4-dihydrothieno[3,2-d]pyrimidin-1(2H)-yl)propanenitrile] | 6.62 | – | – | pEC50 (SARS-CoV-2-NLuc; read-out: MPro EC50): 6.22
21 | COc1cc(-c2cc3c(s2)c(=O)n(-c2cncc4ccccc24)c(=O)n3CCC#N)c(Cl)cc1F (single isomer, unassigned) [Example 638, 3-[6-(2-chloro-4-fluoro-5-methoxy-phenyl)-3-(4-isoquinolyl)-2,4-dioxo-thieno[3,2-d]pyrimidin-1-yl]propanenitrile] | 6.72 | – | – | pEC50 (SARS-CoV-2-NLuc; read-out: MPro EC50): 7.22
22 | COc1cc(-c2cc3c(s2)c(=O)n(-c2cncc4nc(C(F)F)n(C)c24)c(=O)n3CCC#N)c(Cl)cc1F [Example 954] | 7.84 | 7.58 | – | –
23 | COc1cc(-c2cc3[nH]c(=O)n(-c4cncc5cccc(Cl)c45)c(=O)c3s2)c(Cl)cc1F [Example 1074] | 8.36 | – | – | pEC50 (SARS-CoV-2-NLuc; read-out: MPro EC50): 8.23
24 | COc1cc(-c2cc3c(s2)c(=O)n(-c2cncc4cnn(C)c24)c(=O)n3CCC#N)c(Cl)cc1Cl [Example 1017, 3-[6-(2,4-dichloro-5-methoxy-phenyl)-3-(1-methylpyrazolo[4,3-c]pyridin-7-yl)-2,4-dioxo-thieno[3,2-d]pyrimidin-1-yl]propanenitrile] | 8.23 | – | – | pEC50 (SARS-CoV-2-NLuc; [5]): 8.28

Row | SMILES | pIC50 [1, 2] | pEC50 (SARS-CoV-2-NLuc; [3]) | pIC50 [1, 4] | also measured
25 | N#Cc1ccccc1-c1cnc2c(=O)n(-c3cncc4ccccc34)c(=O)[nH]c2c1 [Example 69] | – | 5.38 | 7.27 | –
26 | O=c1[nH]c2cc(-c3ccccc3Cl)sc2c(=O)n1-c1cnnc2ccccc12 [Example 131] | – | 6.20 | 7.01 | –
27 | COCCOc1c(C)cncc1-n1c(=O)[nH]c2cc(-c3ccccc3Cl)sc2c1=O [Example 214] | – | – | 7.95 | pEC50 (SARS-CoV-2-NLuc; [5]): 7.70
28 | Cn1ncc2cncc(-n3c(=O)c4sc(-c5ccc(F)cc5C#N)cc4n(CCC#N)c3=O)c21 [Example 785] | 7.42 | 6.86 | – | –
29 | Cn1ncc(-c2cccc(Cl)c2-c2ccc3c(=O)n(-c4cncc5ccccc45)c(=O)[nH]c3c2)c1C(F)F [Example 311] | – | 7.60 | 7.34 | –
30 | O=c1[nH]c2cc(-c3ccc4sccc4c3)ccc2c(=O)n1-c1cncc2ccccc12 [Example 49] | – | 4.89 | < 4.00 | –
31 | COc1ccc2cncc(-n3c(=O)[nH]c4cc(-c5c(Cl)cccc5-c5cc(C)c6ncnn6c5)sc4c3=O)c2c1 [Example 562, 6-[2-chloro-6-(8-methyl-[1,2,4]triazolo[1,5-a]pyridin-6-yl)phenyl]-3-(6-methoxy-4-isoquinolyl)-1H-thieno[3,2-d]pyrimidine-2,4-dione] | > 8.60 | 8.30 | – | –
32 | CN1CCN(c2ccc3cncc(-n4c(=O)[nH]c5cc(-c6ccccc6Cl)sc5c4=O)c3c2)CC1 [Example 400] | 8.22 | 8.22 | – | –
33 | O=c1[nH]c2cc(-c3cccc4ccccc34)ccc2c(=O)n1-c1cncc2ccccc12 [Example 26] | – | 4.32 | 4.40 | –
34 | O=c1[nH]c2cc(-c3ccccc3Cl)sc2c(=O)n1-c1cncc2ccc(N3CC(O)(C(F)(F)F)C3)cc12 [Example 426] | 7.67 | 7.39 | – | –
35 | N#CCCn1c(=O)n(-c2cncc3ccccc23)c(=O)c2sc(-c3cc(F)c(F)cc3Cl)cc21 [Example 826] | 8.08 | 7.62 | – | –
36 | Cn1cncc1-c1cccc(Cl)c1-c1cc2[nH]c(=O)n(-c3cncc4ccccc34)c(=O)c2s1 [Example 525] | 7.98 | 7.09 | – | –
37 | COc1ccc(Cl)c(-c2cc3[nH]c(=O)n(-c4cncc5c(Cl)cccc45)c(=O)c3s2)c1 [Example 595] | 6.32 | 5.93 | – | –
38 | CCOc1cc(-c2cc(OC)c(F)cc2Cl)cc2[nH]c(=O)n(-c3cncc4ccccc34)c(=O)c12 [Example 676] | 7.50 | 7.60 | – | –
39 | COc1ccc(Cl)c(-c2cc3[nH]c(=O)n(-c4cncc5c4OCCC5)c(=O)c3s2)c1 [Example 586] | 7.58 | 7.27 | – | –
40 | NC(=O)c1ccc(-c2cccc(Cl)c2-c2ccc3c(=O)n(-c4cncc5ccccc45)c(=O)[nH]c3c2)cc1 [Example 149, 4-[3-chloro-2-[3-(4-isoquinolyl)-2,4-dioxo-1H-quinazolin-7-yl]phenyl]benzamide] | – | 7.40 | 7.72 | –
41 | COc1ccc(Cl)c(-c2cc3[nH]c(=O)n(-c4cncc5cccc(C)c45)c(=O)c3s2)c1 [Example 559] | 8.21 | 8.04 | – | –
42 | COc1cc(-c2cc3[nH]c(=O)n(-c4cncc5[nH]cc(C)c45)c(=O)c3s2)c(Cl)cc1F [Example 767] | 8.29 | 7.69 | – | –
43 | COc1cc(-c2cc3c(s2)c(=O)n(-c2cncc4[nH]c(=O)n(C)c24)c(=O)n3CCC#N)c(Cl)cc1F [Example 687] | 8.31 | 6.83 | – | –
44 | COc1cc(-c2cc3c(s2)c(=O)n(-c2cncc4ccccc24)c(=O)n3CC2(CC#N)CC2)c(Cl)cc1F [Example 661] | 7.53 | 7.43 | – | –
45 | COc1ccc(Cl)c(-c2cc3[nH]c(=O)n(-c4cncc5ccc(N6CCn7nc(C(F)(F)F)nc7C6)cc45)c(=O)c3s2)c1 [Example 604] | 8.20 | 7.96 | – | –
46 | Cc1c(C#N)cncc1-c1cccc(Cl)c1-c1ccc2c(=O)n(-c3cncc4ccccc34)c(=O)[nH]c2c1 [Example 205] | – | 7.38 | 7.36 | –
47 | O=c1[nH]c2cc(-c3c(Cl)cccc3Cl)ccc2c(=O)n1-c1cncc2ccccc12 [Example 95, 7-(2,6-dichlorophenyl)-3-(isoquinolin-4-yl)quinazoline-2,4(1H,3H)-dione] | – | – | 5.80 | pEC50 (SARS-CoV-2-NLuc; [5]): 6.17
48 | O=c1[nH]c2cc(-c3cc(OC(F)(F)F)ccc3Cl)sc2c(=O)n1-c1cncc2ccccc12 [Example 344] | – | 6.43 | 6.96 | –
